Experimental data reported in paper PMC11941218, “Juglone-Bearing Thiopyrano[2,3-d]thiazoles Induce Apoptosis in Colorectal Adenocarcinoma Cells” (Cells, 2025).
Read-outs that look alike come from different tables or passages of the source.

Legend:
[1] = tested on: HT-29 colorectal adenocarcinoma cells; experiment: Apoptosis assay, FITC-Annexin V/propidium iodide flow cytometry; type: cell-based, human; settings: HT-29, 24 h; Les-6547 5 μM, Les-6557 10 μM
Experimental: The pro-apoptotic effects of the tested compounds were assessed using the FITC Annexin V Apoptosis Detection Kit II in conjunction with a BD FACSCanto II flow cytometer (BD Biosciences, San Jose, CA, USA). The experimental procedure adhered to the manufacturer’s instructions and previously established protocols.
Initially, HT-29 cells were seeded in 6-well plates at a density of 300,000 cells per well in 2 mL of culture medium and incubated overnight to allow adherence. Subsequently, the cells were treated with Les-6547 (5 µM) and Les-6557 (10 µM) for 24 h. After exposure to the compounds, the cells were rinsed twice with cold PBS and suspended in the binding buffer provided in the kit. FITC Annexin V and propidium iodide (PI) were added to the 100 µL cell suspension, followed by 15-min incubation at room temperature, shielded from light.
After the incubation, 300 µL of binding buffer was added to each sample, and analysis was performed using the flow cytometer, with 10,000 events recorded per sample. Data were processed using FACSDiva software (version 6.1.3, BD Biosciences, San Jose, CA, USA). Calibration of the instrument was ensured using a BD Cytometer Setup and Tracking Beads (BD Biosciences, San Diego, CA, USA).

[2] = tested on: HT-29 colorectal adenocarcinoma cells; experiment: MTT assay; type: cell-based; settings: Homo sapiens
Experimental: (§1) DLD-1, HaCaT, and Balb/c 3T3 cells were maintained in DMEM, while HT-29 cells were grown in McCoy’s 5A medium with 10% FBS and 1% penicillin/streptomycin. All cell lines were incubated at 37 °C in a humidified atmosphere with 5% CO2. After detaching the cells with trypsin, they were quantified using a Scepter 3.0 automated cell counter (Millipore, Burlington, MA, USA).
(§2) The metabolic activity of cells exposed to the tested derivatives, doxorubicin, and DMSO, was assessed using an MTT assay according to the manufacturer’s protocol (Sigma-Aldrich, St. Louis, MO, USA). Adherent cells were seeded into 96-well plates (5000–10,000 cells in 100 µL of growth medium per well) and allowed to adhere overnight before treatment. For lymphocytes, activation with phytohemagglutinin-L (1 µg/mL) was performed for 24 h, after which they were seeded in 96-well plates at a density of 100,000 cells/well in RPMI-1640 medium supplemented with 20% FBS. The test substances, including Les-6547, Les-6557, and doxorubicin, were added to 100 µL of culture medium to achieve final concentrations of 0 µM, 0.1 µM, 1 µM, 2.5 µM, 10 µM, and 100 µM for all compounds, and the cells were further incubated for 24, 48, or 72 h. DMSO-treated cells served as the control. Then, 20 µL of MTT solution (5 mg/mL) was added and incubated for 2–4 h to allow formazan crystal formation. The formazan crystals were then solubilized by adding DMSO. The absorbance of formazan was measured at 570 nm using a ThermoScientific Evolution 201 UV-VIS spectrophotometer (ThermoFisher Scientific, Waltham, MA, USA). The control condition with 0.5% DMSO was considered 100% viability. The IC50 values for the compounds were determined using GraphPad Prism 8 and 9 software (GraphPad Software, Boston, MA, USA).

[3] = tested on: Balb/c 3T3 (mouse fibroblasts); experiment: MTT assay; type: cell-based; settings: BALB/c3T3, Balb/c 3T3, MTT, 72 h, M ± SD, n = 3
Experimental: as §1, §2

[4] = tested on: HaCaT (human keratinocytes); experiment: MTT assay; type: cell-based; settings: 72 h, M ± SD, n = 3
Experimental: as §1, §2

caspase 10 = experiment: Caspase 10 activity assay (FAM-FLICA, flow cytometry) in HT-29 cells; type: cell-based, human; settings: HT-29, 24 h; Les-6547 5 μM, Les-6557 10 μM
Experimental: Caspase activity for initiator caspases (8, 9, and 10) and executioner caspases (3/7) was evaluated using a FAM-FLICA® Caspase Assay kit (ImmunoChemistry Technologies, Bloomington, MN, USA) according to the manufacturer’s instructions, as described in previous studies. HT-29 cells were exposed to Les-6547 (5 µM) and Les-6557 (10 µM) for 24 h. Following this, the cells were harvested, washed twice with cold PBS, and resuspended in Apoptosis Wash Buffer (ImmunoChemistry Technologies, Bloomington, MN, USA) at a final concentration of 5 × 10^5 cells/mL.
Subsequently, 290 µL of the cell suspension was transferred into individual tubes, to which 10 µL of freshly prepared FLICA solution (1:5 dilution in PBS) was added. The mixture was gently pipetted and incubated for 1 h at 37 °C in the dark. After the incubation, the cells were washed twice with 2 mL of Apoptosis Wash Buffer, centrifuged, and resuspended in 300 µL of the same buffer. The prepared samples were immediately analyzed using a BD FACSCanto II flow cytometer (10,000 events). Data were processed using FACSDiva 6.1.3 software (BD Biosciences Systems, San Jose, CA, USA). Flow cytometer calibration was conducted using a BD Cytometer Setup and Tracking Beads (BD Biosciences, San Diego, CA, USA).

[5] = tested on: HT-29 colorectal adenocarcinoma cells; experiment: Cell cycle analysis (PI, flow cytometry); type: cell-based, human; settings: HT-29, 24 h; Les-6547 5 μM, Les-6557 10 μM
Experimental: Cell cycle analysis of HT-29 cells treated with Les-6547 (5 µM) and Les-6557 (10 µM) for 24 h was conducted utilizing a FACSCanto II flow cytometer. Following the incubation period, the cells were detached using trypsin, collected, and fixed in cold ethanol (70%) before being stored at −20 °C for up to three days. Cells were then processed for flow cytometry analysis as previously described. Fixed cells were washed with cold PBS and centrifuged at 2000 rpm for 10 min, and the supernatant was discarded. The cell pellet was resuspended in PBS with 50 μg/mL DNase-free RNase A Solution and stained with 100 μg/mL PI for 30 min at 37 °C in the dark. After washing, the cells were resuspended in PBS. Cell cycle distribution was analyzed using a BD FACSCanto II flow cytometer (10,000 events) and FACSDiva 6.1.3 software (both BD Biosciences Systems, San Jose, CA, USA), followed by analysis with FCS Express 7 software (De Novo Software, Pasadena, CA, USA). The system was calibrated using a BD Cytometer Setup and Tracking Beads (BD Biosciences, San Diego, CA, USA).

[6] = HT-29, MTT, 24, 48 and 72 h, read-out: IC50 (range over incubation times)
[7] = HT-29, MTT, 24 h, M ± SD, n = 3, read-out: IC50
[8] = HT-29, MTT, 48 h, M ± SD, n = 3, read-out: IC50
[9] = HT-29, MTT, 72 h, M ± SD, n = 3, read-out: IC50

IC50 [2, 6] [µM]	IC50 [2, 7] [µM]	IC50 [2, 8] [µM]	IC50 [2, 9] [µM]	SMILES	apoptotic cells (sum of early and late apoptotic cells) [1] [%]	IC50 [3] [µM]	IC50 [4] [µM]	Cells with active caspase 10 (caspase 10) [%]	cells in G1 phase [5] [%]	cells in G2/M phase [5] [%]	cells in S phase [5] [%]
6.54 to 10.4	10.4 ± 0.23	6.54 ± 0.07	9.78 ± 0.03	O=C1C2=C(C(=O)c3c(O)cccc31)C(c1ccc(Cl)cc1)c1sc(=O)[nH]c1S2 (stereo not drawn) [Les-6557]	31.9	40.26 ± 0.35	68.37 ± 0.57	40.9	19.2	28.8	51.3
4.29 to 5.72	5.72 ± 0.41	4.29 ± 0.5	4.44 ± 0.35	O=C1C2=C(C(=O)c3c(O)cccc31)C(c1cc(Cl)ccc1O)c1sc(=O)[nH]c1S2 (stereo not drawn) [Les-6547]	36.2	31.7 ± 0.41	89.64 ± 0.84		25.4	39.9	34.7
